Measured values published in publication PMC5862616 (Oncotarget, 2018).
Values joined by “and” are separate entries in the source; they are usually repeats but may differ in a detail not shown here. Identical values can stand only once. Like-named read-outs stand apart in the source and are kept apart here.

Columns and labels:
MO-91 cells (ETV6-NTRK3) = conditions: read-out: IC50 proliferation of MO-91 cells; in vitro; cited from earlier work
MO-91 xenograft tumors = tested on: MO-91 xenograft tumors; design: method as in PMID 23811600; conditions: 50 mg/kg once daily; cited from earlier work
[1] = target: T1, wild-type TPM3-NTRK1 in NIH-3T3 cells (Homo sapiens, UniProt P04629+P06753); assay: Immunoblot of p-NTRK1 in NIH-3T3 cells, wild-type TPM3-NTRK1; format: cell-based; conditions: 0.2 μM and 0.5 μM, 4 hours
T1 construct: expressed in transfected cells

[2] = tested on: p-eIF4E in NIH-3T3 cells expressing TPM3-NTRK1; assay: Immunoblot of p-eIF4E in NIH-3T3 TPM3-NTRK1 cells; format: cell-based
Experimental: 350 μg/ml hygromycin selection for 14 days. Each stable CO). Percent Ki67+ area was calculated as the percentage
wild-type or mutated NTRK1. Control vector containing positive. […]
(§1) 20 μg NTRK1 fusion confirmation
T20 (ThermoScientific, Rockford, IL) for 30 minutes. MiniPrep cat# R2051 following manufacturer ’s protocol.
A forward primer upstream of the
(§2) (1:2000) (Sigma-Aldrich), HRP-conjugated mouse or primers. The primer sequences are TPM3_Ex3B_F5:
(§3) Chalfont, UK). All western blots were developed using Ex12_R5: […]. PCR was […]

[3] = tested on: EL1989 PDX tumors (TPM3-NTRK1); assay: Colorectal carcinoma PDX model EL1989; conditions: mouse, in vivo
KM-12 cells [4] = assay: KM-12 anchorage dependent cell proliferation (CellTiter-Glo); format: cell-based; conditions: Homo sapiens, KM12, 72 h, read-out: IC50 KM-12 cell proliferation (anchorage dependent)
KM-12 cells [5] = assay: KM-12 anchorage independent growth in alginate; format: cell-based; conditions: Homo sapiens, KM12, 72 h, read-out: IC50 KM-12 anchorage independent growth
[6] = tested on: p-ERK (MAPK 42/44) in KM-12 cells; assay: Western blot of phosphorylated MAPK 42/44 (ERK) in KM-12 cells; format: cell-based
Experimental: as §1
(§4) T20 (ThermoScientific, Rockford, IL) for 30 minutes. MiniPrep cat# R2051 following manufacturer ’s protocol. […]
as §2, §3

[7] = target: T2, mutant G595R TPM3-NTRK1 in NIH-3T3 cells (Homo sapiens, UniProt P04629+P06753, G595R); assay: Immunoblot of p-NTRK1 in NIH-3T3 cells, G595R TPM3-NTRK1; format: cell-based; conditions: 0.2 μM and 0.5 μM, 4 hours
T2 construct: expressed in transfected cells

[8] = tested on: KM-12 xenograft tumors (TPM3-NTRK1); assay: KM-12 xenograft tumor model; format: in vivo, athymic nude mice
[9] = tested on: MKNK1/2 (p-eIF4E S209) in KM-12 cells; assay: Western blot of p-eIF4E S209 in KM-12 cells; format: cell-based
Experimental: as §1, §4, §2, §3

T2 sequence (P04629 510-796 G595R limits assumed, one chain of several): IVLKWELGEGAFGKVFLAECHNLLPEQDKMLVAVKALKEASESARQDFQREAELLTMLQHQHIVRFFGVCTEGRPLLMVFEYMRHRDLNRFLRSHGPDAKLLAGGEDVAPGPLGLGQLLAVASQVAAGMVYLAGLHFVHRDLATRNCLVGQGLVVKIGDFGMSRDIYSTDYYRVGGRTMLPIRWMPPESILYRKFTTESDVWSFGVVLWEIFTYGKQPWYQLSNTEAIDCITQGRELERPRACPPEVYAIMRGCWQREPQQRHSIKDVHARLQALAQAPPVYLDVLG
T1 sequence (P06753+P04629 fused): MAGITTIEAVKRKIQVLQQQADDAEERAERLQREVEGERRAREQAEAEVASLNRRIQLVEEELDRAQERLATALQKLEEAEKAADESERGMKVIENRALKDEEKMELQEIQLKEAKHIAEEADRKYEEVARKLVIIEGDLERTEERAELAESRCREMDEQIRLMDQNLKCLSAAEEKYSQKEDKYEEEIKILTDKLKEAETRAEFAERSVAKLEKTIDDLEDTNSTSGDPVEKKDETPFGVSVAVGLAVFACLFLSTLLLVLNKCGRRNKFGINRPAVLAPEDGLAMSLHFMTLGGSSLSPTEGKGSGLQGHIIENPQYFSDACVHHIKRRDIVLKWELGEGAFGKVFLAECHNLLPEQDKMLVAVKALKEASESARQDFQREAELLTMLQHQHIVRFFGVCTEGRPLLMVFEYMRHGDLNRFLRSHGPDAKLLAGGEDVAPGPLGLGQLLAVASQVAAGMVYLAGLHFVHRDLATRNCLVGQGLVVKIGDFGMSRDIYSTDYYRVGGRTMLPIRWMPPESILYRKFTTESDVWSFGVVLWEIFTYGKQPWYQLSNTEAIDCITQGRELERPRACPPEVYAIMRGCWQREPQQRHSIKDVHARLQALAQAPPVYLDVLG

Compound	IC50 (MO-91 cells (ETV6-NTRK3))	Effect on MO-91 xenograft tumors (MO-91 xenograft tumors)	p-NTRK1 (Y490) signaling, wild-type TPM3-NTRK1, in words [1]	p-eIF4E reduction, in words [2]	% Necrosis/Mucin, individual animal [3]	% Necrosis/Mucin, mean per group [3]	T/C, EL1989 PDX [3]	IC50 (KM-12 cells [4])	IC50 (KM-12 cells [5])	p-ERK inhibition (in words) [6]	p-NTRK1, mutant G595R TPM3-NTRK1, in words [7]	Animal weights, KM-12 xenograft study ([8]; merestinib 24 mg/kg once daily, crizotinib 25 mg/kg twice daily, measured twice weekly, relative to vehicle)	T/C, KM-12 xenograft ([8]; mouse, in vivo)	p-eIF4E reduction (MKNK1/2 inhibition, in words) [9]	Concentration giving total inhibition of phosphorylation of MAPK 42/44 (ERK) ([6]; KM-12 cells, 2 hours, 3.9-1000 nM, western blot)	p-eIF4E reduction (MKNK1/2 inhibition, in words) ([9]; KM-12 cells, 2 hours, western blot, b12: 100, 500, 1000 nM)
C[C@@H](Oc1cc(-c2cnn(C3CCNCC3)c2)cnc1N)c1c(Cl)ccc(F)c1Cl [Crizotinib, reference compound]	10 nM	induced tumor regression	reduced	did not show reduction in p-eIF4E	80% (2×) and 20% and 95% and 30% and 10%	50%	13.5%	92 nM	276 nM	dose dependent inhibition	little effect	no significant weight alteration	39.5%	small reduction of p-eIF4E	–	–
CN1CCN(c2ccc(C(=O)Nc3n[nH]c4ccc(Cc5cc(F)cc(F)c5)cc34)c(NC3CCOCC3)c2)CC1 [Entrectinib, reference compound]	–	–	–	–	–	–	–	–	–	–	–	–	–	small reduction of p-eIF4E	–	–
O=C(Nc1cnn2ccc(N3CCC[C@@H]3c3cc(F)ccc3F)nc12)N1CC[C@H](O)C1 [Larotrectinib, reference compound]	–	–	reduced	–	–	–	–	–	–	–	partial p-NTRK1 inhibition	–	–	–	15.6 nM	small reduction of p-eIF4E
